Assays:
Test in all cases: radiometric filter-binding kinase assay
EPHB4 (human) = EPHB4 (human) (UniProt P54760)
IKBKB (human) = IKBKB (human) (UniProt O14920)
YES1 (human) = YES1 (human) (UniProt P07947); conditions: compound 1.0 µM
STK3 (human) = STK3 (human) (UniProt Q13188)
MYLK (human) = MYLK (human) (UniProt Q15746)
MAP2K1 (human) = MAP2K1 (human) (UniProt Q02750)
MKNK2 (human) = MKNK2 (human) (UniProt Q9HBH9)
PAK6 (human) = PAK6 (human) (UniProt Q9NQU5)
EPHB1 (human) = EPHB1 (human) (UniProt P54762)
MAP3K9 (human) = MAP3K9 (human) (UniProt P80192)
PIM1 (human) = PIM1 (human) (UniProt P11309)
CSNK2A1 (human) = CSNK2A1 (human) (UniProt P68400)
[1] = test system: RPS6KB1 (human), P23443 [T412E]
NEK6 (human) = NEK6 (human) (UniProt Q9HC98)
PIM3 (human) = PIM3 (human) (UniProt Q86V86)
EEF2K (human) = EEF2K (human) (UniProt O00418); conditions: compound 1.0 µM
GCK (human) = GCK (human) (UniProt Q12851)
SRPK1 (human) = SRPK1 (human) (UniProt Q96SB4)
INSRR (human) = INSRR (human) (UniProt P14616); conditions: compound 1.0 µM
DAPK1 (human) = DAPK1 (human) (UniProt P53355)
MAP2K2 (human) = MAP2K2 (human) (UniProt P36507)
TTK (human) = TTK (human) (UniProt P33981)
BTK (human) = BTK (human) (UniProt Q06187)
PIM2 (human) = PIM2 (human) (UniProt Q9P1W9)
[2] = test system: PAK2 (human), Q13177 [T402E]
RPS6KA5 KD1 KD2 (human) = RPS6KA5 KD1 KD2 (human) (UniProt O75582); conditions: compound 1.0 µM
CDK2 CCNA2 (human) = CDK2 CCNA2 (human) (UniProt P20248+P24941)
MARK4 (human) = MARK4 (human) (UniProt Q96L34)
CHEK1 (human) = CHEK1 (human) (UniProt O14757)
EPHA4 (human) = EPHA4 (human) (UniProt P54764)
MAPK9 (human) = MAPK9 (human) (UniProt P45984)
TBK1 (human) = TBK1 (human) (UniProt Q9UHD2)
MARK3 (human) = MARK3 (human) (UniProt P27448)
MAP3K5 (human) = MAP3K5 (human) (UniProt Q99683)
MAPKAPK2 (human) = MAPKAPK2 (human) (UniProt P49137)
PKN2 (human) = PKN2 (human) (UniProt Q16513)

Sequence of NEK6 (human) (Q9HC98 whole entry, looked up): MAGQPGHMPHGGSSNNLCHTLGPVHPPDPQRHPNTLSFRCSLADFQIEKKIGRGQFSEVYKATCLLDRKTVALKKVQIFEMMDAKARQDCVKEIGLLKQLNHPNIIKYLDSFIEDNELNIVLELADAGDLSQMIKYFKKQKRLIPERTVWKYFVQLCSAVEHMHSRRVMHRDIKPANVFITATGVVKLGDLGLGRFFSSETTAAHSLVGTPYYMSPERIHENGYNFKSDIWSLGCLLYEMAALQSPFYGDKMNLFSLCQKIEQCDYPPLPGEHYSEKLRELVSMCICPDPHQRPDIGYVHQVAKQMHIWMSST
Sequence of CSNK2A1 (human) (P68400 whole entry, looked up): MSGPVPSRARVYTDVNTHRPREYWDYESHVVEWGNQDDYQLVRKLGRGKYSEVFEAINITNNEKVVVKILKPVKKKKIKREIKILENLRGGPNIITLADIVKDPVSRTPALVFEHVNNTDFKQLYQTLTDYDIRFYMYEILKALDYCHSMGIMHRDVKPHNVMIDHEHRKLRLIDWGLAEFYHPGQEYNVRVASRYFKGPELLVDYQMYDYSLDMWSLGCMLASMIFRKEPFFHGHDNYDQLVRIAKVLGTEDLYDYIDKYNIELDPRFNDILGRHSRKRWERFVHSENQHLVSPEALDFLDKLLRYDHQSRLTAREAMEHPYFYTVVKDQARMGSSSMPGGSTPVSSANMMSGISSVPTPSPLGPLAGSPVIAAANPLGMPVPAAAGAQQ
Sequence of IKBKB (human) (O14920 whole entry, looked up): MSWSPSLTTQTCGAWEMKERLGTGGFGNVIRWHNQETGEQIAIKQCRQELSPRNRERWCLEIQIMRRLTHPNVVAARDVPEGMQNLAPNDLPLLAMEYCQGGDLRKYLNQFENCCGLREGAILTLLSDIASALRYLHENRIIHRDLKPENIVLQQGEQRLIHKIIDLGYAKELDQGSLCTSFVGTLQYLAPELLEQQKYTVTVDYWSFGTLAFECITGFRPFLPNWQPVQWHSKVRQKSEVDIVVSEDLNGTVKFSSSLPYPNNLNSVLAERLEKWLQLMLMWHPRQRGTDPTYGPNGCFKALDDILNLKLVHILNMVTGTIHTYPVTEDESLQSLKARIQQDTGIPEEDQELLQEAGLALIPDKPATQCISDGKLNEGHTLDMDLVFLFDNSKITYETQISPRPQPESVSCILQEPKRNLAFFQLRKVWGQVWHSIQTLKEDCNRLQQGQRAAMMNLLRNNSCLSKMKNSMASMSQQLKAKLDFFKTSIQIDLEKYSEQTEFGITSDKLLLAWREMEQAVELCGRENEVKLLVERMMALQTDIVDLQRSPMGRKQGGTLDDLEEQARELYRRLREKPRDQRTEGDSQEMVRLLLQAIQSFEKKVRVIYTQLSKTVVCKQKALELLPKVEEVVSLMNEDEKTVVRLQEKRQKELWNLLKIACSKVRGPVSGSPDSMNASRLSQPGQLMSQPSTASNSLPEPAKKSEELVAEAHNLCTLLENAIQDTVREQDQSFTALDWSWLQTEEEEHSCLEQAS
Sequence of STK3 (human) (Q13188 whole entry, looked up): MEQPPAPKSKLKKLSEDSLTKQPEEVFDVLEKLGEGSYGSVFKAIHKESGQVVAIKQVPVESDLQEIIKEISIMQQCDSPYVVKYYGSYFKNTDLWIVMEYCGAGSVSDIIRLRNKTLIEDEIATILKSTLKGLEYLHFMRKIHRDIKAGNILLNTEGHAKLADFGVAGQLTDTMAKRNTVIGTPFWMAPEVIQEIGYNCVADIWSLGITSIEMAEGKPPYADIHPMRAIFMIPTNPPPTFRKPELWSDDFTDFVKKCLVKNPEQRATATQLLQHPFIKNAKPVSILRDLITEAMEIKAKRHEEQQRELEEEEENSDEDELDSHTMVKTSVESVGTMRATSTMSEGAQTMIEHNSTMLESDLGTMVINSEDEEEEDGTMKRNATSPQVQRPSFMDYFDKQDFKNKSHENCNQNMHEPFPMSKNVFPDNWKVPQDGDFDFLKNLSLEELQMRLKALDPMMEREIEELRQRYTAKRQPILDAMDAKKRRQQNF
Sequence of PAK6 (human) (Q9NQU5 whole entry, looked up): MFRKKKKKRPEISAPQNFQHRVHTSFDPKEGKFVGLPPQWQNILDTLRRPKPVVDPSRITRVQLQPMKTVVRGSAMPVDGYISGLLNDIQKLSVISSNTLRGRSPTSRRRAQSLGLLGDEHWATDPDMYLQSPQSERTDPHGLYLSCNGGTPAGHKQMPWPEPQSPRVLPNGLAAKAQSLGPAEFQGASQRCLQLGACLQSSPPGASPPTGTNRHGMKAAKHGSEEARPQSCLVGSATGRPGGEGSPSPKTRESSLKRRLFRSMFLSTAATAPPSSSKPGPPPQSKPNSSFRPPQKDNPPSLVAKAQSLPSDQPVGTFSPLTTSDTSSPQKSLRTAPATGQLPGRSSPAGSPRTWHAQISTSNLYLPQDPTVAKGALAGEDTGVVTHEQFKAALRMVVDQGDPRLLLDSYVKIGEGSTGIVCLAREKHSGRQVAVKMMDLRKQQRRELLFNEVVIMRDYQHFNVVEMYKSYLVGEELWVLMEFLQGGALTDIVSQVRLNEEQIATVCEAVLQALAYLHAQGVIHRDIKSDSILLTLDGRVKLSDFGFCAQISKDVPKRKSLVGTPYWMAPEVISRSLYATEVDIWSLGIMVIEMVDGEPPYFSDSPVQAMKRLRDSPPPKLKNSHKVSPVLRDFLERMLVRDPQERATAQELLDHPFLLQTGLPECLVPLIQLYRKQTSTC
Sequence of MAPKAPK2 (human) (P49137 whole entry, looked up): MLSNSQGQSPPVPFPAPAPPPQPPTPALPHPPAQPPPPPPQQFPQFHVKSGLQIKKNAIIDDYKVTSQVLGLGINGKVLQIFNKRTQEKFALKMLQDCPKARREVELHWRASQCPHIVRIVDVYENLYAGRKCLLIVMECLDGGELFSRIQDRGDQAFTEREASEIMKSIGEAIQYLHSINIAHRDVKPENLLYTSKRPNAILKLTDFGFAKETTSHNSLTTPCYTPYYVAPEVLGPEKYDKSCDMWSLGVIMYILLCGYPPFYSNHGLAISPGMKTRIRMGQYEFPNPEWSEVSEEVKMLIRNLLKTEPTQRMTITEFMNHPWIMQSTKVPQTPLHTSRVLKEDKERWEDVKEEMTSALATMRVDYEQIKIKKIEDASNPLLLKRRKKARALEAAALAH
Sequence of PIM2 (human) (Q9P1W9 whole entry, looked up): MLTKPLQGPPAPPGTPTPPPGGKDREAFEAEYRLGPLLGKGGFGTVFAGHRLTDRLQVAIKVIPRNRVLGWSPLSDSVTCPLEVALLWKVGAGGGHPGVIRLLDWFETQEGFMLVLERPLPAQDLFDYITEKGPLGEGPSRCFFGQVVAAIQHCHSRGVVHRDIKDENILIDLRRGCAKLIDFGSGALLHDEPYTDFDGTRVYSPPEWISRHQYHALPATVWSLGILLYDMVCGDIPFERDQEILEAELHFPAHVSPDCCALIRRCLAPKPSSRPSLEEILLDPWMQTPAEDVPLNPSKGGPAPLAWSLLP
Sequence of GCK (human) (Q12851 whole entry, looked up): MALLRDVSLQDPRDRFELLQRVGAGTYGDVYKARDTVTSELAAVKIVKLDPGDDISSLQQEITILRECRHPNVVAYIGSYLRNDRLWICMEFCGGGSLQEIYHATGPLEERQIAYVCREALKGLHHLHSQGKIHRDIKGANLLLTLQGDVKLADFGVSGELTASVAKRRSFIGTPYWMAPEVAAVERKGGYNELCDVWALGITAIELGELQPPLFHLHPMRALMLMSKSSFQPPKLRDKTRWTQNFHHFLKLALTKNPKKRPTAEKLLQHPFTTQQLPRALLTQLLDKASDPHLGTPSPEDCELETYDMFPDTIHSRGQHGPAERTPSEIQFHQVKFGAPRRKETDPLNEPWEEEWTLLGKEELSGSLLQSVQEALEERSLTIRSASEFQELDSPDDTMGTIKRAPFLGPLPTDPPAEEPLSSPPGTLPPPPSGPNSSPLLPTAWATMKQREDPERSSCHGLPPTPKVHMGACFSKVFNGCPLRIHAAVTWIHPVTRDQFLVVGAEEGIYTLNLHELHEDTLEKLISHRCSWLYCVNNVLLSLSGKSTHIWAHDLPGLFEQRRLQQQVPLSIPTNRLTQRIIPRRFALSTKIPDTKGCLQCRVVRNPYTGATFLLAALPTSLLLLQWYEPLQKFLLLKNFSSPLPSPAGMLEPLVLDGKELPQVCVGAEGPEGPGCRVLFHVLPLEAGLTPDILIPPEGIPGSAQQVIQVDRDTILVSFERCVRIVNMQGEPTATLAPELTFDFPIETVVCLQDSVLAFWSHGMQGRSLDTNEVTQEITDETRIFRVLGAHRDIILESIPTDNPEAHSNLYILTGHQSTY
Sequence of MAP2K1 (human) (Q02750 whole entry, looked up): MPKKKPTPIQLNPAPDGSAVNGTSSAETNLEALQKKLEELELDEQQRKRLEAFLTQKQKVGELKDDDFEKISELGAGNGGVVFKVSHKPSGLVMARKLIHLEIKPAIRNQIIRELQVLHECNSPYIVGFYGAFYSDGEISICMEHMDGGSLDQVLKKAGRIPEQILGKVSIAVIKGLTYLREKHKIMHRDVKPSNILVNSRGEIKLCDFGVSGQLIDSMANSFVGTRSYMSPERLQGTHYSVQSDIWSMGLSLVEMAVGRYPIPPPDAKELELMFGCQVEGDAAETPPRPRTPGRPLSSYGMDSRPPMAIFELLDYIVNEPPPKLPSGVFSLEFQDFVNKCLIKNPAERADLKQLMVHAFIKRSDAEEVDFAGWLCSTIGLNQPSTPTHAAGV

With COc1cc(O)c2c(c1)/C=C/C[C@H](O)[C@H](O)C(=O)/C=C\C[C@H](C)OC2=O the residual activity (EPHB4 (human); compound 0.1 µM) was 87%, the residual activity (EPHB4 (human); compound 1.0 µM) was 90% and the residual activity (IKBKB (human); compound 0.1 µM) was 102%. For the same compound, the residual activity (IKBKB (human); compound 1.0 µM) was 95%, the residual activity (YES1 (human)) was 60% and the residual activity (STK3 (human); compound 0.1 µM) was 120%. The residual activity (STK3 (human); compound 1.0 µM) was 89%, the residual activity (MYLK (human); compound 0.1 µM) was 108% and the residual activity (MYLK (human); compound 1.0 µM) was 80%. The residual activity (MAP2K1 (human); compound 0.1 µM) was 13%, the residual activity (MAP2K1 (human); compound 1.0 µM) was 2% and the residual activity (MKNK2 (human); compound 0.1 µM) was 41%. The residual activity (MKNK2 (human); compound 1.0 µM) was 26%, the residual activity (PAK6 (human); compound 0.1 µM) was 100% and the residual activity (PAK6 (human); compound 1.0 µM) was 87%. For the same compound, the residual activity (EPHB1 (human); compound 0.1 µM) was 99%, the residual activity (EPHB1 (human); compound 1.0 µM) was 81% and the residual activity (MAP3K9 (human); compound 0.1 µM) was 109%. The residual activity (MAP3K9 (human); compound 1.0 µM) was 75%, the residual activity (PIM1 (human); compound 0.1 µM) was 102% and the residual activity (PIM1 (human); compound 1.0 µM) was 72%. It also gave a residual activity (CSNK2A1 (human); compound 0.1 µM) of 106%, a residual activity (CSNK2A1 (human); compound 1.0 µM) of 77% and a residual activity ([1]; compound 0.1 µM) of 112%. It also gave a residual activity ([1]; compound 1.0 µM) of 82%, a residual activity (NEK6 (human); compound 0.1 µM) of 122% and a residual activity (NEK6 (human); compound 1.0 µM) of 93%. It also gave a residual activity (PIM3 (human); compound 0.1 µM) of 126%, a residual activity (PIM3 (human); compound 1.0 µM) of 80% and a residual activity (EEF2K (human)) of 85%. For the same compound, the residual activity (GCK (human); compound 0.1 µM) was 121%, the residual activity (GCK (human); compound 1.0 µM) was 80% and the residual activity (SRPK1 (human); compound 0.1 µM) was 104%. The residual activity (SRPK1 (human); compound 1.0 µM) was 88%, the residual activity (INSRR (human)) was 96% and the residual activity (DAPK1 (human); compound 0.1 µM) was 108%. It also gave a residual activity (DAPK1 (human); compound 1.0 µM) of 94%, a residual activity (MAP2K2 (human); compound 0.1 µM) of 12% and a residual activity (MAP2K2 (human); compound 1.0 µM) of 3%. The residual activity (TTK (human); compound 0.1 µM) was 104%, the residual activity (TTK (human); compound 1.0 µM) was 91% and the residual activity (BTK (human); compound 0.1 µM) was 90%. It also gave a residual activity (BTK (human); compound 1.0 µM) of 93%, a residual activity (PIM2 (human); compound 0.1 µM) of 91% and a residual activity (PIM2 (human); compound 1.0 µM) of 106%. It also gave a residual activity ([2]; compound 0.1 µM) of 104%, a residual activity ([2]; compound 1.0 µM) of 110% and a residual activity (RPS6KA5 KD1 KD2 (human)) of 100%. It also gave a residual activity (CDK2 CCNA2 (human); compound 0.1 µM) of 119%, a residual activity (CDK2 CCNA2 (human); compound 1.0 µM) of 88% and a residual activity (MARK4 (human); compound 0.1 µM) of 107%. The residual activity (MARK4 (human); compound 1.0 µM) was 86%, the residual activity (CHEK1 (human); compound 0.1 µM) was 114% and the residual activity (CHEK1 (human); compound 1.0 µM) was 92%. For the same compound, the residual activity (EPHA4 (human); compound 0.1 µM) was 91%, the residual activity (EPHA4 (human); compound 1.0 µM) was 46% and the residual activity (MAPK9 (human); compound 0.1 µM) was 109%. For the same compound, the residual activity (MAPK9 (human); compound 1.0 µM) was 81%, the residual activity (TBK1 (human); compound 0.1 µM) was 105% and the residual activity (TBK1 (human); compound 1.0 µM) was 102%. The residual activity (MARK3 (human); compound 0.1 µM) was 116%, the residual activity (MARK3 (human); compound 1.0 µM) was 77% and the residual activity (MAP3K5 (human); compound 0.1 µM) was 91%. It also gave a residual activity (MAP3K5 (human); compound 1.0 µM) of 95%, a residual activity (MAPKAPK2 (human); compound 0.1 µM) of 124% and a residual activity (MAPKAPK2 (human); compound 1.0 µM) of 79%. It also gave a residual activity (PKN2 (human); compound 0.1 µM) of 102% and a residual activity (PKN2 (human); compound 1.0 µM) of 91%.
